Series [1] can be described thus: Tissue distribution study in mice (32P-labeled BP1001). It counts as in vivo. The note with it: mouse, 20 mg/kg i.v. As for the experimental part: Tissue distribution studies of BP1001 were conducted in mice following i.v. administration. Twenty mice (5/group) were divided into three test article groups and one control group. Test article groups were injected i.v. via the tail vein with radio-labeled (^32P) BP1001 at a dose of 20 mg of oligonucleotide per kg of body weight. Injected mice were euthanized by CO2 inhalation at 4, 24, and 48 hours following injection for organ harvest. Control animals were non-injected animals. Spleen, liver, kidney, heart, stomach, lung, and bone marrow tissue were collected from all animals, and tissue samples (50-100 mg) from each organ were weighed and processed. ^32P radioactivity was counted in a scintillation counter. Results were expressed as mean μg BP1001/g tissue. As expected, no radioactivity was detected in control animals. […] BP1001 accumulated in all tissues examined, with the highest accumulation in spleen, liver, and kidney tissue. At 4 h following injection, mean BP1001 tissue concentrations per g of tissue were: 64 μg (spleen), 50 μg (liver), 34 μg (kidney), and ranged from 12-34 μg in other tissues. […] A minimal amount of BP1001 (˜0.4 μg in two femurs) was detected in the bone marrow, where the concentration remained relatively constant for […].

Series [2] in a line: Single-dose toxicity study in mice. The settings on record: mouse.
Procedure: Fifteen female ICR mice (5/group) were assigned to a non-injected control group (Group IV) and two treatment groups (Groups V and VI) to receive 20 and 40 mg oligo/kg, respectively, intravenously via the tail vein as a single injection. Animals were observed daily and blood was collected for hematology and clinical chemistry evaluations at two and six weeks post injection. Animals were sacrificed following blood collection at six weeks post-injection and tissues collected for gross and microscopic evaluations of organ toxicity.

The results in this text go back to patent US20200032271A1, “COMBINATION THERAPY WITH LIPOSOMAL ANTISENSE OLIGONUCLEOTIDES” (Bio-Path Holdings, Inc., priority 2016, published 2020).

[PEt] = P-ethoxy (ethyl phosphotriester) internucleoside linkage

“BP1001: liposome-incorporated P-ethoxy antisense oligodeoxynucleotide (5′-ATATTTGGCGATGGCTTC-3′, SEQ ID NO: 1) specific to grb2 mRNA, in neutral DOPC liposomes (DNA, all [PEt], methylation of C not given here; incorporated in neutral DOPC liposomes)”: in series [1], the “tissue half-life in lungs” value is reported as around 48 h; the “tissue half-life in spleen, liver, kidney, heart and stomach” value is listed as “approximately 24 h”. Besides, in series [1] (4 h), the “mean tissue concentration, kidney” value is on record as 34 μg/g tissue; the “mean tissue concentration, liver” value came out at 50 μg/g tissue; the “mean tissue concentration, other tissues” value is 12-34 μg/g tissue; the “mean tissue concentration, spleen” value was found to be 64 μg/g tissue. The “amount detected in bone marrow (two femurs)” value in series [1] (relatively constant for 72 h) is around 0.4 µg. Moreover, in series [2] (single i.v. 30 mg oligo/kg), the “WBC counts at six weeks post-injection” value is reported as “Recovery”. Further, the “group average WBC count at six weeks” value in series [2] (single i.v. 40 mg oligo/kg, not statistically different than control) is “not fully recovered”. Moreover, the morbidity or mortality entry in series [2] (single i.v. 15-40 mg oligo/kg, six weeks observation) is “No signs of morbidity or mortality”. The “drug-related lesions in examined organs” value in series [2] (single i.v. 15-40 mg/kg) is given as “no drug-related lesions”. The “WBC count at two weeks post-injection” value in series [2] (single i.v. 30 and 40 mg oligo/kg) is “Reduction”.
